The text below walks through data of the NIST ThermoML archive (doi:10.1016/j.tca.2016.12.008).

By mass density is commonly meant mass per unit of volume.

The nature of data set [1]: Molar enthalpy of transition or fusion. To be noted: Crystal; DSC.
The conditions of data set [2]: for Normal melting temperature: DTA.

The structures appear in SMILES notation. Where “and” joins values, the source holds several entries; their conditions need not be identical. Equal entries are not always repeated. Numbers after ± are expanded uncertainties.

For `CC(C)(C)C(=O)Oc1ccc2ccccc2c1-c1c(OC(=O)C(C)(C)C)ccc2ccccc12`, in data set [1], the “Molar enthalpy of transition or fusion” value was determined as 6.81 ± 0.191 kcal/mol. For the same compound, the mass density in data set [2] (293 K, 101.33 kPa, Crystal, X-ray diffraction) amounted to 1173 ± 6 kg/m3. In addition, the Normal melting temperature in data set [2] (Crystal) was 156.20 ± 0.9 °C and 155.50 ± 0.5 °C. Moreover, in data set [2] (Glass, DSC), the Glass transition temperature was 25.00 ± 2 °C.

`Oc1ccc2ccccc2c1-c1c(O)ccc2ccccc12` [(1,1'-binaphthalene)-2,2'-diol]: in data set [1], the “Molar enthalpy of transition or fusion” value is 7.46 ± 0.215 kcal/mol. Further, the Normal melting temperature in data set [2] (Crystal) came out at 215.40 ± 0.5 °C.

Turning to `CC(C)(C)C(=O)Oc1ccc2ccccc2c1-c1c(OC(=O)C(C)(C)C)ccc2ccccc12` [(1,1'-binaphthalene)-2,2'-diyl bis(2,2-dimethylpropanoate)], the Normal melting temperature in data set [2] (Crystal 1) worked out at 123.80 ± 0.5 °C. For the same compound, in data set [2] (Crystal 2, DSC), the Triple point temperature was determined as 389.55 ± 1.3 K.

As to `Oc1ccc2ccccc2c1-c1c(O)ccc2ccccc12` [(S)-(1,1'-binaphthalene)-2,2'-diol], the “Molar enthalpy of transition or fusion” value in data set [1] came out at 7.39 ± 0.167 kcal/mol. Also, the Normal melting temperature in data set [2] (Crystal) is 209.20 ± 0.5 °C and 208.00 ± 0.5 °C.
